According to ChEMBL document CHEMBL3784999, “Investigation of 4-amino-5-alkynylpyrimidine-2(1H)-ones as anti-mycobacterial agents” (Bioorg Med Chem, 2016):
In brackets after ≈: the same amount, converted by molar mass. Activity calls are given as the source filed them. The rule behind the calls is not given here.

Columns and labels:
[1] = Cytotoxicity against African green monkey Vero cells assessed as cell viability after 3 days by XTT assay; type: cell-based; details: chlorocebus sabaeus
[2] = system: Mycobacterium tuberculosis; assay: Antimycobacterial activity against Mycobacterium tuberculosis H37Ra assessed as inhibition of mycobacterial replication after 6 days by microplate Alamar blue assay; type: functional; details: 144 h
[3] = system: Mycobacterium tuberculosis; assay: Antimycobacterial activity against Mycobacterium tuberculosis H37Ra assessed as inhibition of mycobacterial replication at 6.25 ug/ml after 6 days by microplate Alamar blue assay in presence of isoniazid; type: functional; details: 144 h
[4] = system: Mycobacterium tuberculosis; assay: Antimycobacterial activity against Mycobacterium tuberculosis H37Ra assessed as inhibition of mycobacterial replication at 6.25 ug/ml after 6 days by microplate Alamar blue assay in absence of isoniazid; type: functional, organism-based
[5] = system: Mycobacterium tuberculosis; assay: Ratio MIC90 for Mycobacterium tuberculosis H37Ra in presence of isoniazid to MIC90 for Mycobacterium tuberculosis H37Ra in absence of isoniazid; type: functional
[6] = system: Mycobacterium tuberculosis; assay: Antimycobacterial activity against Mycobacterium tuberculosis H37Ra infected in BALB/c mouse assessed as reduction of bacterial load in lung at 25 mg/kg, po administered for 2 weeks started on day 4 post bacterial infection measured 3 days post last dose; type: functional
[7] = system: Mycobacterium tuberculosis; assay: Antimycobacterial activity against Mycobacterium tuberculosis H37Ra infected in BALB/c mouse assessed as reduction of bacterial load in liver at 25 mg/kg, po administered for 2 weeks started on day 4 post bacterial infection measured 3 days post last dose; type: functional
[8] = system: Mycobacterium tuberculosis; assay: Antimycobacterial activity against Mycobacterium tuberculosis H37Ra infected in BALB/c mouse assessed as reduction of bacterial load in spleen at 25 mg/kg, po administered for 2 weeks started on day 4 post bacterial infection measured 3 days post last dose; type: functional
[9] = system: Mycobacterium tuberculosis; assay: Antimycobacterial activity against Mycobacterium tuberculosis H37Ra infected in BALB/c mouse assessed as reduction of bacterial load in lung at 12.5 mg/kg, po administered for 2 weeks started on day 4 post bacterial infection measured 3 days post last dose co-treated with 1 mg/kg, po isoniazid; type: functional
[10] = system: Mycobacterium tuberculosis; assay: Antimycobacterial activity against Mycobacterium tuberculosis H37Ra infected in BALB/c mouse assessed as reduction of bacterial load in spleen at 12.5 mg/kg, po administered for 2 weeks started on day 4 post bacterial infection measured 3 days post last dose co-treated with 1 mg/kg, po isoniazid; type: functional
Mus musculus [11] = assay: Toxicity in BALB/c mouse infected with Mycobacterium tuberculosis H37Ra assessed as weight loss at 6.25 to 25 mg/kg, po administered for 2 weeks started on day 4 post bacterial infection; type: organism-based; details: in vivo, 336 h
Mus musculus [12] = assay: Toxicity in BALB/c mouse infected with Mycobacterium tuberculosis H37Ra assessed as behavioral changes at 6.25 to 25 mg/kg, po administered for 2 weeks started on day 4 post bacterial infection; type: organism-based; details: in vivo, 336 h
Mus musculus [13] = assay: Toxicity in BALB/c mouse infected with Mycobacterium tuberculosis H37Ra assessed as change in urea level in serum at 6.25 to 25 mg/kg, po administered for 2 weeks started on day 4 post bacterial infection; type: organism-based; details: in vivo, 336 h
Mus musculus [14] = assay: Toxicity in BALB/c mouse infected with Mycobacterium tuberculosis H37Ra assessed as change in creatinine level in serum at 6.25 to 25 mg/kg, po administered for 2 weeks started on day 4 post bacterial infection; type: organism-based; details: in vivo, 336 h
Mus musculus [15] = assay: Toxicity in BALB/c mouse infected with Mycobacterium tuberculosis H37Ra assessed as change in phosphate level in serum at 6.25 to 25 mg/kg, po administered for 2 weeks started on day 4 post bacterial infection; type: organism-based; details: in vivo, 336 h
Mus musculus [16] = assay: Toxicity in BALB/c mouse infected with Mycobacterium tuberculosis H37Ra assessed as change in calcium level in serum at 6.25 to 25 mg/kg, po administered for 2 weeks started on day 4 post bacterial infection; type: organism-based; details: in vivo, 336 h
Mus musculus [17] = assay: Toxicity in BALB/c mouse infected with Mycobacterium tuberculosis H37Ra assessed as change in cholesterol level in serum at 6.25 to 25 mg/kg, po administered for 2 weeks started on day 4 post bacterial infection; type: organism-based; details: in vivo, 336 h
Mus musculus [18] = assay: Toxicity in BALB/c mouse infected with Mycobacterium tuberculosis H37Ra assessed as change in alkaline phosphatase level in serum at 6.25 to 25 mg/kg, po administered for 2 weeks started on day 4 post bacterial infection; type: organism-based; details: in vivo, 336 h
Mus musculus [19] = assay: Toxicity in BALB/c mouse infected with Mycobacterium tuberculosis H37Ra assessed as change in amylase level in serum at 6.25 to 25 mg/kg, po administered for 2 weeks started on day 4 post bacterial infection; type: organism-based; details: in vivo, 336 h
Mus musculus [20] = assay: Toxicity in BALB/c mouse infected with Mycobacterium tuberculosis H37Ra at 6.25 to 25 mg/kg, po administered for 2 weeks started on day 4 post bacterial infection by necroscopy; type: organism-based; details: in vivo, 336 h
Mus musculus [21] = assay: Toxicity in BALB/c mouse infected with Mycobacterium tuberculosis H37Ra at 6.25 to 25 mg/kg, po administered for 2 weeks started on day 4 post bacterial infection by necroscopy in presence of isoniazid; type: organism-based; details: in vivo, 336 h
Mus musculus [22] = assay: Toxicity in BALB/c mouse infected with Mycobacterium tuberculosis H37Ra assessed as weight loss at 6.25 to 25 mg/kg, po administered for 2 weeks started on day 4 post bacterial infection in presence of isoniazid; type: organism-based; details: in vivo, 336 h
Mus musculus [23] = assay: Toxicity in BALB/c mouse infected with Mycobacterium tuberculosis H37Ra assessed as behavioral changes at 6.25 to 25 mg/kg, po administered for 2 weeks started on day 4 post bacterial infection in presence of isoniazid; type: organism-based; details: in vivo, 336 h
Mus musculus [24] = assay: Toxicity in BALB/c mouse infected with Mycobacterium tuberculosis H37Ra assessed as change in urea level in serum at 6.25 to 25 mg/kg, po administered for 2 weeks started on day 4 post bacterial infection in presence of isoniazid; type: organism-based; details: in vivo, 336 h
Mus musculus [25] = assay: Toxicity in BALB/c mouse infected with Mycobacterium tuberculosis H37Ra assessed as change in creatinine level in serum at 6.25 to 25 mg/kg, po administered for 2 weeks started on day 4 post bacterial infection in presence of isoniazid; type: organism-based; details: in vivo, 336 h
Mus musculus [26] = assay: Toxicity in BALB/c mouse infected with Mycobacterium tuberculosis H37Ra assessed as change in phosphate level in serum at 6.25 to 25 mg/kg, po administered for 2 weeks started on day 4 post bacterial infection in presence of isoniazid; type: organism-based; details: in vivo, 336 h
Mus musculus [27] = assay: Toxicity in BALB/c mouse infected with Mycobacterium tuberculosis H37Ra assessed as change in calcium level in serum at 6.25 to 25 mg/kg, po administered for 2 weeks started on day 4 post bacterial infection in presence of isoniazid; type: organism-based; details: in vivo, 336 h
Mus musculus [28] = assay: Toxicity in BALB/c mouse infected with Mycobacterium tuberculosis H37Ra assessed as change in cholesterol level in serum at 6.25 to 25 mg/kg, po administered for 2 weeks started on day 4 post bacterial infection in presence of isoniazid; type: organism-based; details: in vivo, 336 h
Mus musculus [29] = assay: Toxicity in BALB/c mouse infected with Mycobacterium tuberculosis H37Ra assessed as change in alkaline phosphatase level in serum at 6.25 to 25 mg/kg, po administered for 2 weeks started on day 4 post bacterial infection in presence of isoniazid; type: organism-based; details: in vivo, 336 h
Mus musculus [30] = assay: Toxicity in BALB/c mouse infected with Mycobacterium tuberculosis H37Ra assessed as change in amylase level in serum at 6.25 to 25 mg/kg, po administered for 2 weeks started on day 4 post bacterial infection in presence of isoniazid; type: organism-based; details: in vivo, 336 h
Mus musculus [31] = assay: Toxicity in BALB/c mouse infected with Mycobacterium tuberculosis H37Ra assessed as gross necroscopy changes at 6.25 to 25 mg/kg, po administered for 2 weeks started on day 4 post bacterial infection; type: organism-based; details: in vivo, 336 h
Mycobacterium avium = assay: Antimycobacterial activity against Mycobacterium avium ATCC 25291 assessed as inhibition of mycobacterial replication after 6 days by microplate Alamar blue assay; type: functional, Mycobacterium avium subsp. avium ATCC 25291; details: ATCC 25291, 144 h

## CCCCCCCCCCCCC#Cc1c[nH]c(=O)nc1N
[1]
  CC50 at 72 h: > 200 µg/mL

## Nc1nc(=O)[nH]cc1C#Cc1ccccc1
[2]
  MIC50: 25 µg/mL (≈ 118 µM)
[3]
  inhibition at 6.25 µg/mL: 100%
[4]
  inhibition: inactive
[5]
  fractional inhibitory concentration index (FICI): 0.25
[6]
  inhibition: inactive
[7]
  inhibition: inactive
[8]
  inhibition: inactive
[9]
  inhibition (INH): 70%
[10]
  inhibition (INH): 45%
Mus musculus [11]
  Activity: Non-toxic
Mus musculus [12]
  Activity: Non-toxic
Mus musculus [13]
  Activity: Non-toxic
Mus musculus [14]
  Activity: Non-toxic
Mus musculus [15]
  Activity: Non-toxic
Mus musculus [16]
  Activity: Non-toxic
Mus musculus [17]
  Activity: Non-toxic
Mus musculus [18]
  Activity: Non-toxic
Mus musculus [19]
  Activity: Non-toxic
Mus musculus [20]
  Activity: Non-toxic
Mus musculus [21]
  Activity: Non-toxic
Mus musculus [22]
  Activity: Non-toxic
Mus musculus [23]
  Activity: Non-toxic
Mus musculus [24]
  Activity: Non-toxic
Mus musculus [25]
  Activity: Non-toxic
Mus musculus [26]
  Activity: Non-toxic
Mus musculus [27]
  Activity: Non-toxic
Mus musculus [28]
  Activity: Non-toxic
Mus musculus [29]
  Activity: Non-toxic
Mus musculus [30]
  Activity: Non-toxic
[1]
  CC50 at 72 h: > 200 µg/mL
Mus musculus [31]
  Activity: Non-toxic

## CCCCCCCCCCCC#Cc1c[nH]c(=O)nc1N
[1]
  CC50 at 72 h: > 200 µg/mL

## CO[C@H]1/C=C/O[C@@]2(C)Oc3c(C)c(O)c4c(O)c(c(/C=N/N5CCN(C)CC5)c(O)c4c3C2=O)NC(=O)/C(C)=C\C=C\[C@H](C)[C@H](O)[C@@H](C)[C@@H](O)[C@@H](C)[C@H](OC(C)=O)[C@@H]1C [RIFAMPIN]
[2]
  MIC90: 0.5 µg/mL (≈ 0.608 µM)
Mycobacterium avium
  MIC90: 2 µg/mL (≈ 2.43 µM)
